In this assay the test system is transplanted pig lung. As to the kind of experiment: Re-implantation of pre-treated non-ischemic donor lungs in recipient pigs. The format is in vivo. The conditions noted are these: nebulisation 1 mg/kg, 24 h evaluation. The procedure: After the pre-treatment of the non-ischemic donor lungs with peptide SEQ ID NO:1 from Example 4 the lungs were re-implanted in recipient pigs. Shortly after reperfusion of the transplanted lungs peptide SEQ ID NO: 1 was administered.
A left thoracotomy through the sixth inter costal space was done, the left hilus was prepared. The hemiazygos vein on the left side was dissected and transected, as it is hiding both the left pulmonary artery and the left atrium. After dissection the ligated ends can be pulled to facilitate exposure of the OP field. The […] and bronchus are encircled. Left pneumonectomy was performed using vascular clamps. Immediately before the implantation single intravenous dose of methylprednisolone (500-1000 mg) and a low dose of heparin (100 IU/kg, see above) was applied. The donor lung was then reimplanted using 4-0 PDS for the bronchial anastomosis and 5-0 Prolene for the pulmonary artery and the left atrial anastomosis. In pigs, there is an additional lobe (caval lobe) of the right lung with 2 veins into the left atrium (1 separate vein for the caval lobe, 1 additional vein arising from the trunk of the main right lower lobe vein). […]
The left donor lung was evaluated for an additional period of 24 hours.
The following parameters have been assessed:
Functional assessment of graft function by oxygenation parameters: Arterial blood gas analyses as well as selective blood gas analysis from the left pulmonary veins were performed every 2 hours for 24 h. The respiratory index was calculated: RI=PaO2/FiO2.
Lung compliance was calculated from the pressure and volume data of the anesthesia ventilator. […]
Functional assessment of graft function by hemodynamic measurements (on-line measurements) and pulmonary vascular resistance (PVR): Hemodynamics, including pulmonary artery pressure (PAP) was measured continuously. Cardiac output (CO) was measured by using a Swan-Ganz catheter. Pulmonary vascular resistance is calculated by the following formula: PVR (dynes·[…]·cm−5)=(PAP−LAP)×80/CO.

The source of these data is US12004506B2, “Pharmaceutical composition comprising a cyclic peptide of formula X1-[sequence]-X2 and use for extracorporeal lung treatment” (priority 2013, dated 2024).

Take `C[C@@H]1NC(=O)CNC(=O)[C@H](CCC(=O)O)NC(=O)[C@@H]2CCCN2C(=O)[C@H]([C@@H](C)O)NC(=O)[C@H](CCC(=O)O)NC(=O)[C@H](CCCNC(=N)N)NC(=O)[C@H](CCC(N)=O)NC(=O)CNC(=O)[C@@H](N)CSSC[C@@H](C(=O)O)NC(=O)[C@H](Cc2ccc(O)cc2)NC(=O)[C@H](Cc2c[nH]c3ccccc23)NC(=O)[C@@H]2CCCN2C(=O)[C@H](CCCCN)NC(=O)[C@H](C)NC(=O)[C@H](CCC(=O)O)NC1=O` [SEQ ID NO: 1]: the “development of lung oedema” value was “reduced”; the “initial graft function and gas exchange” value was “improved”; the “rate of ischemia reperfusion injury induced malfunction of the transplanted lung” value is “reduced”.
